According to PMC9709406 (Frontiers in Pharmacology, 2022):
Where “and” joins values, the source holds several entries; their conditions need not be identical. Identical values can stand only once. Like-named read-outs stand apart in the source and are kept apart here.

Columns and labels:
KYSE450 cells = assay: MTT assay, KYSE450; assay type: cell-based, human; details: for IC50: Homo sapiens, KYSE-450, MTT, 48 h, KYSE450, n = 5, read-out: IC50 48 h KYSE450; for absorbance 490 nm, single well / mean absorbance 490 nm (row G) / mean absorbance 490 nm minus background (row H): KYSE450
Description: (§1) The human cancer cells (H1650, H1975, KYSE70, KYSE410 and KYSE450) were purchased from the Type Culture Collection of the Chinese Academy of Sciences (Shanghai, China). The human immortalized normal esophageal epithelial cell line SHEE was donated by Dr. Enmin Li from the Laboratory of Tumor Pathology (Shantou University Medical College, Shantou, Guangdong, China). Drug-resistant cells (H1650TR, H1975OR, KYSE70TR, KYSE410TR and KYSE450TR) were induced by China-US (Henan) Hormel Cancer Institute. The cellswere cultured in RPMI-1640 complete growth medium containing 100 U/mL penicillin-streptomycin and 10% FBS. Based on the above medium formula, 100 nm/L paclitaxel was added in taxol-resistant cells, 100 nm/L gefitinib was added in gefitinib-resistant cells. The cells were incubated at 37 °C in an atmosphere containing 5% of CO2. The compounds were dissolved in DMSO to make a 50 mM stock solution and were diluted to the concentration of working solutions with complete growth medium before administration.
(§2) Cells were seeded in 96-well plates with 2,200–2,500 cells/well in100 μL. One day after seeding, test compounds with the concentration between 0 and 50 μM were added with 0.1% DMSO as control. Five multiple wells for each concentration. After 48 h, MTT was added and incubated in the plate for 1–4 h in the incubator. The absorbance at 490 nm was measured using a microplate reader (Thermo).

SHEE cells = assay: MTT assay, normal esophageal epithelial cell line SHEE; assay type: cell-based; details: Homo sapiens, 48 h, n = 5
Description: as §1, §2

KYSE70 cells = assay: MTT assay, KYSE70; assay type: cell-based, human; details: for IC50: Homo sapiens, KYSE-70, MTT, 48 h, KYSE70, n = 5
Description: as §1, §2

EGFR = molecular target: T1, EGFR (Homo sapiens, UniProt P00533); assay: EGFR kinase assay (ELISA); assay type: biochemical; details: 25°C
T1 construct: purchased Active MOTIF
T1 sequence (P00533 25-1210): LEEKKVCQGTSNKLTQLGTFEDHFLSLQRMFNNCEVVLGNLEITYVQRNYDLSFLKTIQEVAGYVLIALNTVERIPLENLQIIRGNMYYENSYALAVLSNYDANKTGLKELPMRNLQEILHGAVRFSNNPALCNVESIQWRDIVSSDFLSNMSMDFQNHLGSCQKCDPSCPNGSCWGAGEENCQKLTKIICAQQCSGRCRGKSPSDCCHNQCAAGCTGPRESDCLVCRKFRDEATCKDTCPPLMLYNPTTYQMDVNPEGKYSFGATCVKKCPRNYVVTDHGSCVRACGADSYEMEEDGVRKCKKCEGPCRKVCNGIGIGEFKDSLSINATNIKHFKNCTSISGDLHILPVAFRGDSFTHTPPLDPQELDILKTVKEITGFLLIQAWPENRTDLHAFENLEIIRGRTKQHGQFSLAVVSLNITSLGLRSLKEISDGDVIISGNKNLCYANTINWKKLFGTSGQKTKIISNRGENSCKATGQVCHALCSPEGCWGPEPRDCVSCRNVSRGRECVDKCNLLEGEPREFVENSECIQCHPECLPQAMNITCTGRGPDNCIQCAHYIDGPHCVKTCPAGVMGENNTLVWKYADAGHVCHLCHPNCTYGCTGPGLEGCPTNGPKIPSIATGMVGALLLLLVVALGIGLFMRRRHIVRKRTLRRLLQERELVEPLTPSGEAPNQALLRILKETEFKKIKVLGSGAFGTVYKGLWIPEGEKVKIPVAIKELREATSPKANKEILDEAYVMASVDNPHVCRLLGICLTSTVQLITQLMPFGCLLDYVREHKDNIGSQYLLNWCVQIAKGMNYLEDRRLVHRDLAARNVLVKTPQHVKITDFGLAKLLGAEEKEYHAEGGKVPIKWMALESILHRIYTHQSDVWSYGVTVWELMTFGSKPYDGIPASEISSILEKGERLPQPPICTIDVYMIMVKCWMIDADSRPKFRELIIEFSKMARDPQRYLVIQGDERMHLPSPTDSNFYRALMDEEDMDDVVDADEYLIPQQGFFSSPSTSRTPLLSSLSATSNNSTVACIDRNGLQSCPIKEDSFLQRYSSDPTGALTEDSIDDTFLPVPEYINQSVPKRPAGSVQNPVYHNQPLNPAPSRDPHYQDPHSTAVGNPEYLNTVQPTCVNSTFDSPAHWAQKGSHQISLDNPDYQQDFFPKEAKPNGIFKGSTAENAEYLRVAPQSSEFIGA
Method: Kinase inhibitory activities of the compounds were evaluated using the Protein Tyrosine Kinase Assay Kit (SignalChem (British Columbia, Canada)). The kinase enzyme of EGFR was purchased from Active MOTIF. The ELISA experiments were carried out according the instructions of the kit. Active kinases were incubated with indicated compounds in 1 × reaction buffer containing 20 μM substrate at 25°C for 1 h and 2 h, respectively. The absorbance was read with a multimode plate reader (PerkinElmer, United States) at 450 nm.

KYSE410 cells = assay: MTT assay, KYSE410; assay type: cell-based, human; details: for IC50: Homo sapiens, KYSE-410, MTT, 48 h, KYSE410, n = 5, read-out: IC50 48 h KYSE410
Description: as §1, §2

H1975 cells = assay: MTT assay for cell proliferation and cytotoxicity, H1975; assay type: cell-based, human; details: Homo sapiens
Description: as §1
as §2, with “After 48 h, MTT was added and incubated in the plate for 1–4 h in the incubator.” left out

H1650 cells = assay: MTT assay for cell proliferation and cytotoxicity, H1650; assay type: cell-based; details: Homo sapiens, NCI-H1650, 48 h, H1650, n = 5
Description: as §1, §2

[1] = test system: KYSE450 cell-derived xenograft; assay: In vivo cell-derived xenograft (CDX) mouse model; design: species or system nu/nu nude mice
Method: Mice were housed under specific pathogen-free conditions. All animal experiments were approved by the Bioethics Committee of Zhengzhou University and followed the guidelines set by the Institutional Animal Care and Use Committee (CUHCI2019002, CUHCI2021001, and CUHCI2021005). To generate the cell-derived xenograft (CDX) mouse model, nu/nu nude mice (Vital River Labs., Beijing, China) were subcutaneously injected with 5 × 10^6 cells (KYSE450). […] Tumor volume was calculated as follows: length × width × height × 0.5. Tumor size and mice weight were measured every 2–3 days. Compounds were administered for 15 days. The tumors were extracted for weighting, immunohistochemistry and immunofluorescence studies.
Frozen sections were washed three times with PBS and incubated overnight at 4°C with Ki-67 antibody. The next day, sections were washed three times and incubated with secondary antibody in PBS. After several washes, slides were counterstained with DAPI (Solarbio). The sections were mounted on microscope and imaged using fluorescent microscopy (Nikon, Tokyo, Japan). Image-Pro Plus 6.0 was used to analyze the fluorescence intensity.
Histological sections were dewaxed, antigens were repaired and sealed with serum in sequence. Next, histological sections were incubated overnight with diluted primary antibodies (1 : 500 dilution), and the control specimens were treated with PBS. The sections were washed 3 times with PBS. Secondary antibody was added and the system was then placed at 37 °C for half an hour. The systems were washed 3 times with PBS. Color developing agent was added. After washing with water, the system was soaked in hematoxylin for 0.5 min for dyeing. The re-dyed slides were washed with water, and then dehydrated. Neutral gums were dropped on the side of the tissue. The slices were then covered with cover glass, sealed and placed in a ventilator for drying. Immunohistochemical staining analysis was then carried out with Image-Pro Plus 6.0.

H1975OR cells = assay: MTT assay, osimertinib-resistant H1975OR; assay type: cell-based; details: Homo sapiens, H1975OR, resistance-inducing drug (osimertinib)
Description: as §1
as §2, with “After 48 h, MTT was added and incubated in the plate for 1–4 h in the incubator.” left out

[2] = concentration 12.5 (unit not given)
[3] = concentration 25 (unit not given)
[4] = concentration 50 (unit not given)
[5] = concentration 100 (unit not given)
[6] = incubation 1 h, read-out: IC50 EGFR 1 h
[7] = incubation 2 h, read-out: IC50 EGFR 2 h
[8] = NCI-H1975, 48 h, MTT, 48 h, H1975, n = 5, read-out: IC50 48 h H1975
[9] = nude mice, 50 mg/kg i.p. every day, 15 days, vs control group and icotinib group

COc1ccccc1-n1cc(-c2cccc(Nc3ncnc4cc5c(cc34)OCCOCCOCCO5)c2)nn1 [compound 3d]
IC50 (KYSE450 cells): 13.5 ± 1.21 µM
absorbance 490 nm, single well (KYSE450 cells; [2]): 0.4487 and 0.4214 and 0.4264 and 0.4518
mean absorbance 490 nm (row G) (KYSE450 cells; [2]): 0.4371
mean absorbance 490 nm minus background (row H) (KYSE450 cells; [2]): 0.3824
absorbance 490 nm, single well (KYSE450 cells; [3]): 0.0614 and 0.062 and 0.0618
mean absorbance 490 nm (row G) (KYSE450 cells; [3]): 0.06165
mean absorbance 490 nm minus background (row H) (KYSE450 cells; [3]): 0.00697
absorbance 490 nm, single well (KYSE450 cells; [4]): 0.0565 and 0.0602 and 0.0592 and 0.0604
mean absorbance 490 nm (row G) (KYSE450 cells; [4]): 0.05908
mean absorbance 490 nm minus background (row H) (KYSE450 cells; [4]): 0.004395
absorbance 490 nm, single well (KYSE450 cells; [5]): 0.0606 and 0.0657 and 0.0613 and 0.0623
mean absorbance 490 nm (row G) (KYSE450 cells; [5]): 0.06248
mean absorbance 490 nm minus background (row H) (KYSE450 cells; [5]): 0.007795
IC50 (SHEE cells): 7.2 ± 0.71 µM
IC50 (KYSE70 cells): 7.35 ± 0.7 µM
blank-corrected absorbance 490 nm relative to control (fraction) (KYSE70 cells; KYSE70, concentration 12.5): 0.1496
inhibition (1 minus fraction of control) (KYSE70 cells; KYSE70, concentration 12.5): 0.8504
blank-corrected absorbance 490 nm relative to control (fraction) (KYSE70 cells; KYSE70, concentration 25): 0.05438
inhibition (1 minus fraction of control) (KYSE70 cells; KYSE70, concentration 25): 0.9456
blank-corrected absorbance 490 nm relative to control (fraction) (KYSE70 cells; KYSE70, concentration 50): 0.05391
inhibition (1 minus fraction of control) (KYSE70 cells; KYSE70, concentration 50): 0.9461
blank-corrected absorbance 490 nm relative to control (fraction) (KYSE70 cells; KYSE70, concentration 100): 0.08017
inhibition (1 minus fraction of control) (KYSE70 cells; KYSE70, concentration 100): 0.9198
IC50 (EGFR; [6]): 5.14 µM
IC50 (EGFR; [7]): 26 µM
IC50 (KYSE410 cells): 8.67 ± 0.71 µM
blank-corrected absorbance 490 nm relative to control (fraction) (KYSE410 cells; KYSE410, concentration 12.5): 0.2787
inhibition (1 minus fraction of control) (KYSE410 cells; KYSE410, concentration 12.5): 0.7213
blank-corrected absorbance 490 nm relative to control (fraction) (KYSE410 cells; KYSE410, concentration 25): -0.00175
inhibition (1 minus fraction of control) (KYSE410 cells; KYSE410, concentration 25): 1.002
blank-corrected absorbance 490 nm relative to control (fraction) (KYSE410 cells; KYSE410, concentration 50): 0.004317
inhibition (1 minus fraction of control) (KYSE410 cells; KYSE410, concentration 50): 0.9957
blank-corrected absorbance 490 nm relative to control (fraction) (KYSE410 cells; KYSE410, concentration 100): 0.02345
inhibition (1 minus fraction of control) (KYSE410 cells; KYSE410, concentration 100): 0.9766
melting point: 121 to 124 °C
IC50 (H1975 cells; [8]): 19.4 ± 1.21 µM
IC50 (H1650 cells): 10.8 ± 0.89 µM

Clc1ccccc1-n1cc(-c2cccc(Nc3ncnc4cc5c(cc34)OCCOCCOCCO5)c2)nn1 [compound 3e]
IC50 (KYSE450 cells): 21.8 ± 1.47 µM
absorbance 490 nm, single well (KYSE450 cells; [2]): 0.5603 and 0.5422 and 0.5648 and 0.5469
mean absorbance 490 nm (row G) (KYSE450 cells; [2]): 0.5535
mean absorbance 490 nm minus background (row H) (KYSE450 cells; [2]): 0.4989
absorbance 490 nm, single well (KYSE450 cells; [3]): 0.3988 and 0.3524 and 0.3487 and 0.3334
mean absorbance 490 nm (row G) (KYSE450 cells; [3]): 0.3583
mean absorbance 490 nm minus background (row H) (KYSE450 cells; [3]): 0.3036
absorbance 490 nm, single well (KYSE450 cells; [4]): 0.0685 and 0.0639 and 0.0619 and 0.065 and 0.0672
mean absorbance 490 nm (row G) (KYSE450 cells; [4]): 0.0653
mean absorbance 490 nm minus background (row H) (KYSE450 cells; [4]): 0.01062
absorbance 490 nm, single well (KYSE450 cells; [5]): 0.0642 and 0.0659 and 0.0644 and 0.0663
mean absorbance 490 nm (row G) (KYSE450 cells; [5]): 0.0652
mean absorbance 490 nm minus background (row H) (KYSE450 cells; [5]): 0.01052
IC50 (SHEE cells): 10.3 ± 0.84 µM
IC50 (KYSE70 cells): 7.75 ± 0.68 µM
blank-corrected absorbance 490 nm relative to control (fraction) (KYSE70 cells; KYSE70, concentration 12.5): 0.1936
inhibition (1 minus fraction of control) (KYSE70 cells; KYSE70, concentration 12.5): 0.8064
blank-corrected absorbance 490 nm relative to control (fraction) (KYSE70 cells; KYSE70, concentration 25): 0.0586
inhibition (1 minus fraction of control) (KYSE70 cells; KYSE70, concentration 25): 0.9414
blank-corrected absorbance 490 nm relative to control (fraction) (KYSE70 cells; KYSE70, concentration 50): 0.07267
inhibition (1 minus fraction of control) (KYSE70 cells; KYSE70, concentration 50): 0.9273
blank-corrected absorbance 490 nm relative to control (fraction) (KYSE70 cells; KYSE70, concentration 100): 0.08298
inhibition (1 minus fraction of control) (KYSE70 cells; KYSE70, concentration 100): 0.917
IC50 (EGFR; [6]): 1.29 µM
IC50 (EGFR; [7]): 4.41 µM
IC50 (KYSE410 cells): 11.7 ± 1.01 µM
blank-corrected absorbance 490 nm relative to control (fraction) (KYSE410 cells; KYSE410, concentration 12.5): 0.4649
inhibition (1 minus fraction of control) (KYSE410 cells; KYSE410, concentration 12.5): 0.5351
blank-corrected absorbance 490 nm relative to control (fraction) (KYSE410 cells; KYSE410, concentration 25): 0.2124
inhibition (1 minus fraction of control) (KYSE410 cells; KYSE410, concentration 25): 0.7876
blank-corrected absorbance 490 nm relative to control (fraction) (KYSE410 cells; KYSE410, concentration 50): 0.02952
inhibition (1 minus fraction of control) (KYSE410 cells; KYSE410, concentration 50): 0.9705
blank-corrected absorbance 490 nm relative to control (fraction) (KYSE410 cells; KYSE410, concentration 100): 0.05985
inhibition (1 minus fraction of control) (KYSE410 cells; KYSE410, concentration 100): 0.9402
melting point: 125 to 127 °C
IC50 (H1975 cells; [8]): 13.1 ± 1.02 µM
IC50 (H1650 cells): 5.61 ± 0.3 µM

C#Cc1cccc(Nc2ncnc3cc(OCCOC)c(OCCOC)cc23)c1 [erlotinib, reference compound]
expression of proliferation marker Ki-67 in tumor ([1]; 50 mg/kg i.p., immunofluorescence): decreased significantly
expression of P-ERK (Tyr202/204) in tumor ([1]; 50 mg/kg i.p., immunohistochemistry): decreased significantly
ESCC tumor volume [1, 9]: markedly reduced
average tumor weight [1, 9]: markedly reduced

C=CC(=O)Nc1cc(Nc2nccc(-c3cn(C)c4ccccc34)n2)c(OC)cc1N(C)CCN(C)C [osimertinib, reference compound]
IC50 (H1975OR cells; 24 h, read-out: 24 h IC50): 13.8 ± 2.98 µM
IC50 (H1975OR cells; 48 h, read-out: 48 h IC50): 5.97 ± 0.289 µM
IC50 (H1975 cells; NCI-H1975, 24 h, H1975, MTT, 24 h, resistance-inducing drug (osimertinib), read-out: 24 h IC50): 0.585 ± 0.0261 µM
IC50 (H1975 cells; NCI-H1975, 48 h, H1975, MTT, 48 h, resistance-inducing drug (osimertinib), read-out: 48 h IC50): 0.102 ± 0.0121 µM
